Data published in patent publication US11203777B2, “Method of preparing sterilized compositions for stabilization of extracellular nucleic acids” (Qiagen GmbH, priority 2015, dated 2021).
Values belong to the compound of their own block, whether it stands above or below them. Residues, ends and D or L forms follow the SMILES beside them. *: point of attachment. Cbz = O=C(OCc1ccccc1)*; CH2F = FC*

Legend:
[1] = system: ccfDNA level in whole blood (66 bp and 500 bp fragments of the 18S rDNA gene); assay: ccfDNA stabilization in stored whole blood, real time PCR of 18S rDNA fragments in plasma; settings: for copy numbers of the 500 bp fragment of the 18S rDNA gene: caspase inhibitor approx. 5 μM in stabilized blood; for change of copy numbers (x fold change) of 66 bp and 500 bp fragments of the 18S rDNA gene: 6 days at room temperature, FIG. 3
Experimental: Blood was drawn into Alpha BCT for stabilization of the ccfDNA level. 10 ml spray dried EDTA tubes (BD) with 1.8 mg K2EDTA per ml of whole blood served as non-stabilized negative control. Blood and reagents were mixed by inverting the tube ten times. Stabilized and non-stabilized blood samples were stored at room temperature standing in an upright position.
Whole blood samples were centrifuged at ambient temperature for 15 min at 1.900×g. The clear plasma fraction was transferred into a fresh centrifuge tube. In a second round, plasma samples were centrifuged for 10 min at 16.000×g in case of non-stabilized EDTA-blood or for 10 min at 1.900×g in case of stabilized Alpha BCT blood. The supernatant was transferred into a new tube and used either directly for the purification of ccfDNA or stored at −20° C. until use.
DNA from plasma was isolated with the QIAamp circulating nucleic acid kit (QIAGEN GmbH), using the protocol for purification of circulating nucleic acids from 1 ml, 2 ml, or 3 ml serum or plasma. If not stated otherwise, 2 ml of plasma was mixed with proteinase K and lysis buffer ACL, incubated for 30 min at 60° C., mixed with buffer ACB, bound on QIAamp Mini columns with the use of a QIAvac 24 Plus vacuum manifold, washed and eluted with 60 μl elution buffer AVE, according to the manufactures recommendations.
ccfDNA from 2 ml plasma was isolated with a preliminary version of the QIAsymphony Circulating DNA protocol and kit (QIAGEN). If not stated otherwise, the QIAsymphony robot mixed 2 ml of plasma with proteinase K, binding buffer and magnetic beads. Beads with bound DNA were washed three times and DNA was eluted using 60 μl elution buffer.
To measure the amount of ccfDNA, a real time PCR assay on Abi Prism HT7900 (Life Technologies) was performed with 3 μl of eluate. In a 20 μl assay volume using QuantiTect Multiplex PCR Kit reagents (QIAGEN GmbH), two fragments of the human 18S rDNA gene were amplified in a multiplex PCR. Total quantification was achieved by comparison with a standard curve generated with human genomic DNA diluted from 3000 to 0.3 genome equivalents (1 genome equivalent equates to around 6.6 μg of human genomic DNA).
Quantification of the 66 bp fragment was used to reflect the total amount of 18S rDNA copies in the plasma. Quantification of the 500 bp was used to determine the amount of 18S rDNA copies which derived from apoptotic or mechanically lysed leukocytes from whole blood. […] The increase of copy numbers from the 500 bp fragment between day 0 and 3 or 6 days storage, was used as a measurement of stability efficiency.
PAXgene Blood ccfDNA Alpha tubes were produced and sterilized by gamma irradiation with different energy levels. Samples of 10 ml whole blood from eight donors were collected in 10 ml spray dry K2EDTA tubes (non-stabilized controls) and in PAXgene Blood ccfDNA Alpha tubes. Plasma was generated from 5 ml of stabilized or non-stabilized blood samples directly after blood draw. Residual blood was stored for additional 6 days at room temperature before plasma generation. ccfDNA was purified manually from 2 ml plasma, copy numbers of 18S rDNA gene were determined in triplicates by real time PCR.
Samples of 10 ml whole blood from eight donors were collected in 10 ml spray dry K2EDTA tubes. Directly after blood draw, non-stabilized blood samples were stabilized by addition of 1.7 ml of a ccfDNA stabilization reagent according to PCT/EP2015/055699 with or without addition of the different compounds tested for their impact on extracellular nucleic acid stabilization.
Plasma was generated from 5 ml of stabilized blood samples directly after the blood draw (day 0).

[2] = HPLC quantification of caspase inhibitor in stabilization reagent before and after gamma irradiation; type: physicochemical; settings: for [Casp] (Pre-Irr) / [Casp] (Post-Irr): 50 ml bulk; for [Casp] (Post-Irr): 25 kGy
Experimental: Caspase inhibitor (Q-VD-OPh) was dissolved and diluted in DMSO for generation of a standard curve. Concentrations of 7.5, 15, 30 and 60 μg/ml were used to generate the standard curve.
Stabilization reagents containing a mixture of caspase inhibitor, EDTA, DMPA and PEG were tested before and after gamma irradiation. Unique peaks for caspase inhibitor were identified and compared to the standard curve for total quantification of caspase inhibitor. The concentration of caspase inhibitor was determined before and after irradiation, and these concentrations were compared for relative quantification.
For the production of PAXgene Blood ccfDNA Alpha blood collection tubes (Alpha BCT), BD standard tubes for 10 ml blood draw were filled with 1.3-1.7 ml ccfDNA stabilization reagent. The exemplary stabilization reagents tested comprised a mixture of caspase inhibitor (Q-VD-OPh), K2EDTA, DMPA, PEG300 and PEG10000, according to PCT/EP2015/055699. A vacuum was applied to the tubes to allow for a 10.25 ml blood draw. Tubes were sterilized by gamma irradiation using Cobalt-60 as energetic gamma ray source in a range of 5 to 35 kGy. […]
Stabilization reagents were produced with or without the addition of radical scavengers and sterilized in bulk by gamma irradiation. The caspase inhibitor concentration was measured by HPLC before and after irradiation to determine the effect of scavenger addition on caspase inhibitor degradation during sterilization by gamma irradiation.
Stabilization reagents according to PCT/EP2015/055699 were produced with or without the addition of radical scavengers in different concentrations and with different concentrations of caspase inhibitor. PAXgene Blood ccfDNA Alpha tubes were produced by filling 1.7 ml of the respective stabilization reagent into a standard Vacutainer. Tubes were sterilized by gamma irradiation with different energy levels. The caspase inhibitor concentration was measured by HPLC before and after irradiation (see Table 7 below).

[3] = scavenger 5-10 mg/ml, 0.5-1% (w/v)
[4] = scavenger 1 mg/ml, casp-inh. 5 μM, 0 kGy
[5] = scavenger 1 mg/ml, casp-inh. 5 μM, 20 kGy
[6] = scavenger 1 mg/ml, casp-inh. 5 μM, 30 kGy
[7] = 6 donors, 5 days at room temperature, FIG. 10
[8] = scavenger 0.1-1 mg/ml, 0.01-0.1% (w/v)
[9] = scavenger 0.5-10 mg/ml, 0.05-1% (w/v)

HPLC Testing [C-Inh] [2, 4]: 18.2 µg/mL | HPLC Testing [C-Inh] [2, 5]: 7.0 µg/mL | HPLC Testing [C-Inh] [2, 6]: 5.0 µg/mL | HPLC Testing [C-Inh] ([2]; scavenger 2 mg/ml, casp-inh. 5 μM, 10 kGy): 15.2 µg/mL | HPLC Testing [C-Inh] ([2]; scavenger 2 mg/ml, casp-inh. 5 μM, 20 kGy): 10.7 µg/mL | HPLC Testing [C-Inh] ([2]; scavenger 2 mg/ml, casp-inh. 5 μM, 30 kGy): 9.5 µg/mL | [Casp] (Pre-Irr) ([2]; scavenger 5 mg/ml-27.5 mM): 16.522 µg/mL | [Casp] (Post-Irr) ([2]; scavenger 5 mg/ml-27.5 mM): 12.5986 µg/mL | HPLC Testing [C-Inh] ([2]; scavenger 5 mg/ml, casp-inh. 5 μM, 0 kGy): 19.2 µg/mL | HPLC Testing [C-Inh] ([2]; scavenger 5 mg/ml, casp-inh. 5 μM, 10 kGy): 16.0 µg/mL | HPLC Testing [C-Inh] ([2]; scavenger 5 mg/ml, casp-inh. 5 μM, 20 kGy): 12.8 µg/mL | HPLC Testing [C-Inh] ([2]; scavenger 5 mg/ml, casp-inh. 5 μM, 30 kGy): 12.1 µg/mL | HPLC Testing [C-Inh] ([2]; scavenger 5 mg/ml, casp-inh. 10 μM, 0 kGy): 37.7 µg/mL | HPLC Testing [C-Inh] ([2]; scavenger 5 mg/ml, casp-inh. 10 μM, 10 kGy): 31.2 µg/mL | HPLC Testing [C-Inh] ([2]; scavenger 5 mg/ml, casp-inh. 10 μM, 20 kGy): 26.8 µg/mL | HPLC Testing [C-Inh] ([2]; scavenger 5 mg/ml, casp-inh. 10 μM, 30 kGy): 23.7 µg/mL | HPLC Testing [C-Inh] ([2]; scavenger 5 mg/ml, casp-inh. 15 μM, 0 kGy): 55.5 µg/mL | HPLC Testing [C-Inh] ([2]; scavenger 5 mg/ml, casp-inh. 15 μM, 10 kGy): 46.4 µg/mL | HPLC Testing [C-Inh] ([2]; scavenger 5 mg/ml, casp-inh. 15 μM, 20 kGy): 40.6 µg/mL | HPLC Testing [C-Inh] ([2]; scavenger 5 mg/ml, casp-inh. 15 μM, 30 kGy): 35.5 µg/mL | HPLC Testing [C-Inh] ([2]; scavenger 10 mg/ml, casp-inh. 5 μM, 0 kGy): 18.4 µg/mL | HPLC Testing [C-Inh] ([2]; scavenger 10 mg/ml, casp-inh. 5 μM, 10 kGy): 16.0 µg/mL | HPLC Testing [C-Inh] ([2]; scavenger 10 mg/ml, casp-inh. 5 μM, 20 kGy): 13.5 µg/mL | Protection against gamma irradiation [2, 3]: high
Compound: O=C1O[C@H]([C@@H](O)CO)C(O)=C1O [Ascorbic acid]
average total copy numbers of the 500 bp fragment of the 18S rDNA gene ([1]; scavenger 20 mg/ml, directly after blood collection, FIG. 5): reduced ccfDNA absolute copy numbers | Effect on ccfDNA stability [1, 3]: neutral

Compound: COC(=O)CC(NC(=O)OC(C)(C)C)C(=O)CF [Boc-D-(OMe)-FMK]
copy numbers of the 500 bp fragment of the 18S rDNA gene [1, 7]: comparable to the fragment numbers in blood stabilized with the PAXgene Blood ccfDNA Tube

[Casp] (Pre-Irr) ([2]; scavenger 500 μg/ml-2.9 mM): 16.633 µg/mL | [Casp] (Post-Irr) ([2]; scavenger 500 μg/ml-2.9 mM): 0.5888 µg/mL | Protection against gamma irradiation ([2]; scavenger 0.5-2 mg/ml, 0.2% (w/v)): none
Compound: O=C(O)c1cc(O)c(O)c(O)c1 [Gallic acid]
change of copy numbers (x fold change) of 66 bp and 500 bp fragments of the 18S rDNA gene ([1]; scavenger 2 mg/ml in non-irradiated reagent, 8 donors): lead to an increased release of DNA

HPLC Testing [C-Inh] ([2]; scavenger 0.05 mg/ml, casp-inh. 5 μM, 0 kGy): 19.1 µg/mL | HPLC Testing [C-Inh] ([2]; scavenger 0.05 mg/ml, casp-inh. 5 μM, 10 kGy): 14.1 µg/mL | HPLC Testing [C-Inh] ([2]; scavenger 0.05 mg/ml, casp-inh. 5 μM, 20 kGy): 8.9 µg/mL | HPLC Testing [C-Inh] ([2]; scavenger 0.05 mg/ml, casp-inh. 5 μM, 30 kGy): 6.6 µg/mL | [Casp] (Pre-Irr) ([2]; scavenger 100 μg/ml-320 μM): 16.454 µg/mL | [Casp] (Post-Irr) ([2]; scavenger 100 μg/ml-320 μM): 10.4422 µg/mL | HPLC Testing [C-Inh] ([2]; scavenger 0.1 mg/ml, casp-inh. 5 μM, 0 kGy): 18.8 µg/mL | HPLC Testing [C-Inh] ([2]; scavenger 0.1 mg/ml, casp-inh. 5 μM, 10 kGy): 14.3 µg/mL | HPLC Testing [C-Inh] ([2]; scavenger 0.1 mg/ml, casp-inh. 5 μM, 20 kGy): 9.9 µg/mL | HPLC Testing [C-Inh] ([2]; scavenger 0.1 mg/ml, casp-inh. 5 μM, 30 kGy): 7.5 µg/mL | HPLC Testing [C-Inh] ([2]; scavenger 0.1 mg/ml, casp-inh. 10 μM, 0 kGy): 37.9 µg/mL | HPLC Testing [C-Inh] ([2]; scavenger 0.1 mg/ml, casp-inh. 10 μM, 10 kGy): 29.4 µg/mL | HPLC Testing [C-Inh] ([2]; scavenger 0.1 mg/ml, casp-inh. 10 μM, 20 kGy): 23.3 µg/mL | HPLC Testing [C-Inh] ([2]; scavenger 0.1 mg/ml, casp-inh. 10 μM, 30 kGy): 17.7 µg/mL | HPLC Testing [C-Inh] ([2]; scavenger 0.1 mg/ml, casp-inh. 15 μM, 0 kGy): 55.5 µg/mL | HPLC Testing [C-Inh] ([2]; scavenger 0.1 mg/ml, casp-inh. 15 μM, 10 kGy): 42.7 µg/mL | HPLC Testing [C-Inh] ([2]; scavenger 0.1 mg/ml, casp-inh. 15 μM, 20 kGy): 33.2 µg/mL | HPLC Testing [C-Inh] ([2]; scavenger 0.1 mg/ml, casp-inh. 15 μM, 30 kGy): 25.0 µg/mL | HPLC Testing [C-Inh] ([2]; scavenger 0.2 mg/ml, casp-inh. 5 μM, 0 kGy): 19.9 µg/mL | HPLC Testing [C-Inh] ([2]; scavenger 0.2 mg/ml, casp-inh. 5 μM, 20 kGy): 11.9 µg/mL | HPLC Testing [C-Inh] ([2]; scavenger 0.2 mg/ml, casp-inh. 5 μM, 30 kGy): 10.2 µg/mL | HPLC Testing [C-Inh] ([2]; scavenger 0.5 mg/ml, casp-inh. 5 μM, 10 kGy): 15.4 µg/mL | HPLC Testing [C-Inh] ([2]; scavenger 0.5 mg/ml, casp-inh. 5 μM, 20 kGy): 12.3 µg/mL | HPLC Testing [C-Inh] ([2]; scavenger 0.5 mg/ml, casp-inh. 5 μM, 30 kGy): 11.1 µg/mL | HPLC Testing [C-Inh] [2, 4]: 20.0 µg/mL | HPLC Testing [C-Inh] [2, 5]: 13.8 µg/mL | HPLC Testing [C-Inh] [2, 6]: 12.6 µg/mL | Protection against gamma irradiation [2, 8]: high
Compound: N[C@@H](CCC(=O)N[C@@H](CS)C(=O)NCC(=O)O)C(=O)O [Glutathione]
Effect on ccfDNA stability [1, 8]: neutral

Protection against gamma irradiation ([2]; scavenger 1% (v/v)): none | [Casp] (Pre-Irr) ([2]; scavenger 1%): 16.572 µg/mL | [Casp] (Post-Irr) ([2]; scavenger 1%): 0.8517 µg/mL
Compound: CC(C)O [Isopropanol]

Protection against gamma irradiation ([2]; scavenger 5 mg/ml, 0.5% (w/v)): none | [Casp] (Pre-Irr) ([2]; scavenger 0.5%): 16.554 µg/mL | [Casp] (Post-Irr) ([2]; scavenger 0.5%): 1.0667 µg/mL
Compound: OC[C@@H](O)[C@@H](O)[C@H](O)[C@H](O)CO [Mannitol]

[Casp] (Pre-Irr) ([2]; scavenger 2 mg/ml-12 mM): 16.468 µg/mL | [Casp] (Post-Irr) ([2]; scavenger 2 mg/ml-12 mM): 14.1849 µg/mL | Protection against gamma irradiation [2, 9]: high
Compound: CC(=O)N[C@@H](CS)C(=O)O [N-acetyl-L-cysteine]
protection of caspase inhibitors from gamma-irradiation (copy numbers of the 500 bp fragment) ([1]; 0.5 mg/ml in reagent, 30 kGy, 6 donors, 5 days at room temperature, FIG. 10): efficiently protected the caspase inhibitors Boc-D-(OMe)-FMK and Z-VAD (OMe)-FMK from gamma-irradiation | Effect on ccfDNA stability [1, 9]: neutral

Compound: O=C(OC[C@H]1O[C@@H](OC(=O)c2cc(O)c(O)c(OC(=O)c3cc(O)c(O)c(O)c3)c2)[C@H](OC(=O)c2cc(O)c(O)c(OC(=O)c3cc(O)c(O)c(O)c3)c2)[C@@H](OC(=O)c2cc(O)c(O)c(OC(=O)c3cc(O)c(O)c(O)c3)c2)[C@@H]1OC(=O)c1cc(O)c(O)c(OC(=O)c2cc(O)c(O)c(O)c2)c1)c1cc(O)c(O)c(OC(=O)c2cc(O)c(O)c(O)c2)c1 [Tannic acid]
change of copy numbers (x fold change) of 66 bp and 500 bp fragments of the 18S rDNA gene ([1]; scavenger 1 mg/ml in non-irradiated reagent, 8 donors): lead to an increased release of DNA

[Casp] (Pre-Irr) ([2]; scavenger 4 mM): 16.534 µg/mL | [Casp] (Post-Irr) ([2]; scavenger 4 mM): 3.0195 µg/mL | [Casp] (Pre-Irr) ([2]; scavenger 5 mM in DMSO): 16.649 µg/mL | [Casp] (Post-Irr) ([2]; scavenger 5 mM in DMSO): 3.3548 µg/mL
Compound: Cc1c(C)c2c(c(C)c1O)CCC(C)(C(=O)O)O2 (stereo not drawn) [Trolox, 6-hydroxy-2,5,7,8-tetramethylchromane-2-carboxylic acid]

[Casp] (Pre-Irr) ([2]; scavenger 0.6 mM): 16.550 µg/mL | [Casp] (Post-Irr) ([2]; scavenger 0.6 mM): 0.8856 µg/mL | Protection against gamma irradiation ([2]; scavenger 0.74 mg/ml, 0.07% (v/v)): none
Compound: CCCCCCCC/C=C\CCCCCCCC(=O)OCCOCC(OCCO)C1OCC(OCCO)C1OCCO (stereo not drawn) [Tween-80]

Compound: COC(=O)C[C@H](NC(=O)[C@H](C)NC(=O)[C@@H](NC(=O)OCc1ccccc1)C(C)C)C(=O)CF [Z-VAD (OMe)-FMK, Z-Val-Ala-Asp(OMe)-FMK] (Cbz-Val-Ala-Asp(OMe)-CH2F)
copy numbers of the 500 bp fragment of the 18S rDNA gene [1, 7]: comparable to the fragment numbers in blood stabilized with the PAXgene Blood ccfDNA Tube

Compound: Cc1ncc(CO)c(CO)c1O [vitamin B6, pyridoxine]
number of 500 bp fragments of the 18S rDNA gene compared to the stabilization reagent without scavenger (irradiated) ([1]; 2 mg/ml in reagent, irradiated (30 kGy) as well as unirradiated, 8 donors, 5 days at room temperature, FIG. 9): only half
